Results taken from patent US20220009891A1, “(R) ENANATIOMER OF APLEXONE” (The Regents of the University of California, priority 2018, published 2022).

Experiments:
[1] = tested on: Transgenic Tg(kdrl:GFP)la116 zebrafish embryos; test: Disruption of the caudal vein plexus in zebrafish embryos; assay type: in vivo; conditions: two-day-old zebrafish embryos, treated beginning at 10 hpf
Method: (§1) Transgenic Tg(kdrl:GFP)la116 zebrafish embryos were treated with aplexone compounds beginning at 10 hours post fertilization (hpf). After two days of development, treated embryos were anesthetized with 0.01% tricaine and imaged using a Zeiss Axioplan 2 microscope. […] Formation of the caudal vein plexus is disrupted by treatment with 10 μM or higher of racemic (±)-aplexone (3) and 5 μM or higher of R-aplexone (3), but the caudal vein plexus forms normally even after treatment with 20 μM (S)-aplexone (3).

Zebrafish embryos [2] = test: Cholesterol assay in zebrafish embryos (Amplex Red Cholesterol Assay Kit); assay type: in vivo; conditions: 40 μM, treated from 10 hpf to 30 hpf; FIG. 1
Method: (§2) Zebrafish embryos used in cholesterol assays were treated with aplexone or atorvastatin (AT) from 10 hpf to 30 hpf at a concentration of 40 μM. Yolks were removed by vortexing in calcium-free Ringer's solution with 1 mM EDTA at 4° C. The embryos were then washed with calcium-free Ringer's solution, resuspended in cholesterol assay reaction buffer, and lysed by sonication. Cholesterol levels in embryo lysates were measured with an Amplex Red Cholesterol Assay Kit (ThermoFisher Scientific) and FLUOstar Omega microplate reader (BMG Labtech). Protein concentrations of the embryo lysates were measured by DC protein assay (Bio-Rad Laboratories) using a FLUOstar Omega microplate reader.

Zebrafish embryos [3] = test: Biological assays used herein (summary statement); assay type: in vivo
Method: as §1, §2

zebrafish = conditions: Choi et al., Development 2011; cited from earlier work
[4] = tested on: HMG-CoA reductase pathway; conditions: zebrafish; Choi et al., Development 2011; cited from earlier work

melting point [°C] | SMILES | concentration at which formation of the caudal vein plexus is disrupted [1] [µM] | cholesterol levels in embryo lysates compared with atorvastatin (AT) (Zebrafish embryos [2]) | biological activity of the enantiomer (Zebrafish embryos [3]) | levels of embryonic cholesterol compared with atorvastatin (zebrafish) | regulation of arteriovenous angiogenesis [4]
145 to 146 | CCOC(=O)C1=CC[C@H](c2ccccc2)N(S(=O)(=O)c2ccc(C)cc2)C1 [7c, Ethyl (R)-6-phenyl-1-tosyl-1,2,5,6-tetrahydropyridine-3-carboxylate] | – | – | – | – | –
– | CC(=O)C1=CC[C@@H](c2ccccc2)N(S(=O)(=O)c2ccc(C)cc2)C1 [S-aplexone] | > 20 | no cholesterol lowering activity | little to no biological activity | – | –
– | CC(=O)C1=CCC(c2ccccc2)N(S(=O)(=O)c2ccc(C)cc2)C1 (racemic) [(±)-aplexone, 1-(6-phenyl-1-tosyl-1,2,5,6-tetrahydropyridin-3-yl)ethan-1-one] | ≥ 10 | lowered the cholesterol levels to an extent similar to that of AT | – | lowered the levels of embryonic cholesterol to a degree similar to that of atorvastatin | regulate arteriovenous angiogenesis in zebrafish
– | CC(=O)C1=CC[C@H](c2ccccc2)N(S(=O)(=O)c2ccc(C)cc2)C1 [R-aplexone] | ≥ 5 | decreased the cholesterol levels to a greater extent than AT | active enantiomer | – | –
